Values joined by “and” are separate entries in the source; they are usually repeats but may differ in a detail not shown here. Identical values can stand only once.
Legend:
quinone reductase = assay: Quinone reductase activity induction in Hepa1c1c7 liver cancer cells; assay type: cell-based, white rat; details: sulforaphane at 5 μM, 5 × 10^3 cell/wells
Procedure: For the ethanol extract and the ingredients of the isolated fractions, the quinone reductase activity induction was analyzed. In order to measure the quinone reductase activity induction effect of the fractions obtained from the chlorella, the experiment was conducted using a liver cancer cell line (Hepa1c1c7) of a white rat.
First of all, a-MEM (minimum essential medium)/10% FBS (fetal bovine serum) solution was mixed with a liver cell culture solution to make the cell number of 1×10^5 cells/Ml, and the resulting solution 100 μl was added to a 96-well plate followed by incubating for 24 hours under a condition of 5% CO2 and 37° C. […]
The protein solution 50 μl and reaction solution A (49 Ml 25 mM Tris buffer, 34 mg BSA, 0.34 Ml 1.5% tween-20 solution, 0.34 Ml co-enzyme solution, 100 unit glucose-6-phosphate dehydrogenase, 15 mg MTT, 50 μl 50 mM menadione) 200 μl were mixed together, and the absorbance increasing rate was measure at 610 nm using a microplate reader. The protein amount was measured at 595 nm using Bradford solution. […] The quinone reductase activity of the extract and the fraction was expressed as CD (the concentration of the sample where the quinone reductase activity of the sample-treated cell becomes twice).

[1] = test system: liver injury-induced animal models; assay: ALT, AST, γ-GT and LDH contents in blood serum of ethanol liver-injured animal model; assay type: in vivo, SD rats; details: 10 mg/kg in feed, 10 days
Procedure: The chlorella ethanol extract (CH) was used. The CH was dissolved in ethanol, and mixed with AlN-76 diet to be a daily intake of 50 mg or 100 mg per kg of a test animal weight and supplied to the animal. Specific pathogen free male SD rats of 5-week-old were purchased from Orient Bio Inc. (Seongnam, South Korea). After inspection and adaptation for 1 week, healthy animals without weight loss were selected and used for the test. Test animals were bred under a condition of temperature: 23±3, relative humidity: 50±10%, air change rate: 10-15 times/hour, lighting time: 12 hours (08:00-20:00) and luminous intensity: 150-300 Lux. During adaptation period of 1 week, the test animals were freely fed with solid feed for test animal (Superfeed Co., Ltd., Wonju, South Korea) and drinking water. […] The feed intake was measured every two days, and body weight was measured every week from the day of starting the oral administration of ethanol (0 day) to the final day of the experiment. […] To analyze contents of ALT, AST, γ-GT and LDH in a blood serum isolated from the blood collected on the day of the autopsy, alanine aminotransferase (ALT), aspartate aminotransferase (AST), gamma-glutamyl transferase (γ-GT) and lactic dehydrogenase (LDH) were analyzed using a blood biochemistry analyzer (KoneLab 20, Thermo Fisher Scientific, Waltham, […]).

[2] = test system: liver injury-induced animal models; assay: SOD, CAT, GPx, ADH and ALDH activities in liver cytosol of ethanol liver-injured animal model; assay type: in vivo, SD rats; details: 10 mg/kg in feed, 10 days
Procedure: After inspection and adaptation for 1 week, healthy animals without weight loss were selected and used for the test. Test animals were bred under a condition of temperature: 23±3, relative humidity: 50±10%, air change rate: 10-15 times/hour, lighting time: 12 hours (08:00-20:00) and luminous intensity: 150-300 Lux. During adaptation period of 1 week, the test animals were freely fed with solid feed for test animal (Superfeed Co., Ltd., Wonju, South Korea) and drinking water. After the adaptation period of 1 week, healthy animals were selected, and divided to 5 groups by randomized block design. […] Test feeds were prepared by mixing each test compounds to the feed to the daily feeding amount of 50 or 100 mg per 1 kg of test animal weight as described above, and fed. […] The feed intake was measured every two days, and body weight was measured every week from the day of starting the oral administration of ethanol (0 day) to the final day of the experiment.
1 g liver tissue was homogenized with 0.25 M sucrose (pH 7.0). […] The activities of superoxide dismutase (SOD), catalase (CAT) and glutathione peroxidase (GPx) were measured using a kit of Cayman chemical company (Ann Arbor, Mich., USA). The activity of alcohol dehydrogenase (ADH) was measured by adding 0.2 M ethanol 10 μl, 0.05 M semicarbazide HCl 10 μl and 0.1 M NAD (in 0.01 M HCl) 10 μl to 0.1 M Tris-HCl buffer (pH 8.5) 160 μl followed by adding the cytosolic zymogen 10 μl thereto at 340 nm. […] The activity of acetaldehyde dehydrogenase (ALDH) was measured by adding 1 M KCl 10 μl, 0.1 M pyrazole 10 μl, 1 M 2-mercaptoethanol 10 μl, 0.1 M propione aldehyde 10 μl and 0.1 M NAD (in 0.01 M HCl) 10 μl to 0.2 M Tris-HCl buffer (pH 8.3) 150 μl followed by adding the cytosolic zymogen 10 μl at 340 nm, and the enzyme protein assay was conducted by a method of Lowry et al. (Lowry O H et al., 1957, J Biol Chem 193: 265-276).

[3] = test system: liver injury-induced animal models; assay: Contents of total lipid, triglyceride and total cholesterol in liver tissue of ethanol liver-injured animal model; assay type: in vivo, SD rats; details: 10 mg/kg
Procedure: Specific pathogen free male SD rats of 5-week-old were purchased from Orient Bio Inc. (Seongnam, South Korea). After inspection and adaptation for 1 week, healthy animals without weight loss were selected and used for the test. Test animals were bred under a condition of temperature: 23±3, relative humidity: 50±10%, air change rate: 10-15 times/hour, lighting time: 12 hours (08:00-20:00) and luminous intensity: 150-300 Lux. During adaptation period of 1 week, the test animals were freely fed with solid feed for test animal (Superfeed Co., Ltd., Wonju, South Korea) and drinking water. After the adaptation period of 1 week, healthy animals were selected, and divided to 5 groups by randomized block design. […] Test feeds were prepared by mixing each test compounds to the feed to the daily feeding amount of 50 or 100 mg per 1 kg of test animal weight as described above, and fed. In order to induce the fatty liver by ethanol, 20% ethyl alcohol 5 g per kg (body weight) was orally administered twice a day (morning and afternoon) for 16 days. The feeds containing the test compounds were fed for 10 days after 17th day of the ethanol administration, and the ethanol was orally administered together with the feed continuously. During the test period, drinking water was freely supplied. The feed intake was measured every two days, and body weight was measured every week from the day of starting the oral administration of ethanol (0 day) to the final day of the experiment.
Total lipid content in the liver tissue was analyzed by homogenizing 1 g liver tissue in a saline 3 ml followed by homogenizing again with CM solution (Chloroform:Methanol=2:1) 9 ml. The homogenate was centrifuged at 3,000 rpm for 10 min, and the lower layer was collected and evaporated followed by measuring the total lipid content using a precision scale. The measured total lipid was dissolved in isopropanol, and the triglyceride content and the total choresterol content were measured by a quantitative analysis kit using an enzyme method (Asan Pharm. Co., Ltd., Hwaseong, South Korea).

[4] = test system: liver injury-induced animal models; assay: Content of lipid peroxide in liver microsome of ethanol liver-injured animal model; assay type: in vivo, SD rats; details: EtOH +, 10 mg/kg, mean ± SEM
Procedure: 1 g Liver tissue was homogenized in 0.25 M sucrose (pH 7.0). […] The content of the lipid peroxide was measured by a lipid peroxide measuring kit (BioAssay Systems, Hayward, Calif., USA), and the protein quantification was conducted by a method of Lowry et al. (Lowry O H et al., 1957, J Biol Chem 193: 265-276).

[5] = test system: liver injury-induced animal models; assay: Contents of triglyceride, total cholesterol and HDL-cholesterol in blood serum of ethanol liver-injured animal model; assay type: in vivo, SD rats; details: EtOH +, 10 mg/kg, mean ± SEM
Procedure: The chlorella ethanol extract (CH) was used. The CH was dissolved in ethanol, and mixed with AlN-76 diet to be a daily intake of 50 mg or 100 mg per kg of a test animal weight and supplied to the animal. Specific pathogen free male SD rats of 5-week-old were purchased from Orient Bio Inc. (Seongnam, South Korea). After inspection and adaptation for 1 week, healthy animals without weight loss were selected and used for the test. Test animals were bred under a condition of temperature: 23±3, relative humidity: 50±10%, air change rate: 10-15 times/hour, lighting time: 12 hours (08:00-20:00) and luminous intensity: 150-300 Lux. During adaptation period of 1 week, the test animals were freely fed with solid feed for test animal (Superfeed Co., Ltd., Wonju, South Korea) and drinking water. After the adaptation period of 1 week, healthy animals were selected, and divided to 5 groups by randomized block design. Namely, those were divided into a control group not treated with ethanol and the test material, a group orally administered with ethanol, a group orally administered with ethanol and fed with CH 50 mg/kg, a group orally administered with ethanol and fed with CH 100 mg/kg and a group orally administered with ethanol and fed with sulforaphane 10 mg/kg. The primary feed used in this experiment, AlN-76 was purchased from Research Diets, Inc. (New Brunswick, N.J., USA), and its composition is listed in Table 1. Test feeds were prepared by mixing each test compounds to the feed to the daily feeding amount of 50 or 100 mg per 1 kg of test animal weight as described above, and fed. […] The feeds containing the test compounds were fed for 10 days after 17th day of the ethanol administration, and the ethanol was orally administered together with the feed continuously. During the test period, drinking water was freely supplied. The feed intake was measured every two days, and body weight was measured every week from the day of starting the oral administration of ethanol (0 day) to the final day of the experiment. […]

[6] = did not show the significant difference

Structure (SMILES): C[S+]([O-])CCCCN=C=S (centres unmarked) [Sulforaphane]
- CD (concentration of the sample where the quinone reductase activity of the sample-treated cell becomes twice) (quinone reductase): 1.94 µg/mL and 2.48 µg/mL and 2.07 µg/mL
- serum γ-GT vs group orally administered with ethanol only [1]: did not show the significant difference
- serum LDH content vs group orally administered with ethanol ([1]; with the significant difference): decreased
- liver cytosol SOD activity vs ethanol administration group [2]: increased
- liver cytosol CAT activity vs ethanol administration group [2, 6]: increased
- liver cytosol GPx activity vs group orally administered with ethanol [2, 6]: increased
- total liver cholesterol contents vs group orally administered with ethanol ([3]; showed the significant difference): decreased
- Total cholesterol (mg/g liver) ([3]; EtOH +, mean ± SEM): 4.39 mg/g liver
- Total lipid (mg/g liver) ([3]; EtOH +, mean ± SEM): 48.26 mg/g liver
- Triglyceride (mg/g liver) ([3]; EtOH +, mean ± SEM): 13.28 mg/g liver
- Lipid peroxide (μM/mg protein) [4]: 2.07 μM/mg protein
- HDL-cholesterol [5]: 33.39 mg/dL
- Total cholesterol [5]: 94.25 mg/dL
- Triglyceride [5]: 126.11 mg/dL
